pIC50: −log10 of the molar value.

In this assay the target is T1, RIPK2 enzyme (Homo sapiens, UniProt O43353).
T1 construct: purchased Carna 09-128
T1 sequence (O43353 1-299 limits assumed): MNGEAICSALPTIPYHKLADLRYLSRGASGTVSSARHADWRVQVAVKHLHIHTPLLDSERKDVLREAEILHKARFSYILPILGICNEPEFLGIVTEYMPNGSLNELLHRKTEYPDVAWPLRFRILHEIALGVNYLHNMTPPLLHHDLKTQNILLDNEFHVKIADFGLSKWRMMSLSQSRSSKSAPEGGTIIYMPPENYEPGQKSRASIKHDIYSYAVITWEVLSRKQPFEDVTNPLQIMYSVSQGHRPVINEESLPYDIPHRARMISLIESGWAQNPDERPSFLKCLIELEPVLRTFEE
The assay is described as follows: RIPK2 inhibition (ADP-Glo Kinase Assay). In kind it is biochemical. Conditions: RIPK2 5 nM, ATP 150 μM, MBP substrate, read-out: RIPK2 IC50. The procedure, abridged:
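Human RIPK2 (5 nM) preincubated with compound 30 min at room temperature in 50 mM HEPES pH 7.5, 10 mM MgCl2, 2 mM DTT, 1 mM EGTA, 0.01% Brij-35, 0.05% BSA; native swine MBP as substrate. ADP formed quantified by ADP-Glo luminescence; percent inhibition relative to DMSO and no-enzyme controls.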
One may read the pIC50 as the negative decadic logarithm of the IC50, by convention in mol/L. `CCN1CCC(Oc2ccc3ncnc(Oc4ccc(CC(=O)Nc5cnn(C(C)(C)C)c5)cc4C)c3c2)CC1` [Compound 109, N-(1-(tert-butyl)-1H-pyrazol-4-yl)-2-(4-((6-((1-ethyl-piperidin-4-yl)oxy)quinazolin-4-yl)oxy)-3-methylphenyl) acetamide]: the pIC50 was 8.41. Then `Cc1cc(CC(=O)Nc2cnn(C(C)(C)C)c2)ccc1Oc1ccnc2ccc(OC3CCN(CC(F)(F)F)CC3)cc12` [Compound 110, N-(1-(tert-butyl)-1H-pyrazol-4-yl)-2-(3-methyl-4-((6-((1-(2,2,2-trifluoroethyl)piperidin-4-yl)oxy)quinolin-4-yl)oxy)phenyl) acetamide], with more than 8.60. For the compound `Cc1cc(CC(=O)Nc2cnn(C(C)(C)C)c2)ccc1Oc1ncnc2ccc(OC3CCN(CC(F)(F)F)CC3)cc12` [Compound 111, N-(1-(tert-butyl)-1H-pyrazol-4-yl)-2-(3-methyl-4-((6-((1-(2,2,2-trifluoroethyl)piperidin-4-yl)oxy)quinazolin-4-yl)oxy)phenyl) acetamide], the pIC50 is 7.44. Then `CC(C)(C)n1cc(NC(=O)Cc2ncc(Oc3ncnc4ccc(OC5CCN(CC(F)(F)F)CC5)cc34)cc2F)cn1` [Compound 112, N-(1-(tert-butyl)-1H-pyrazol-4-yl)-2-(3-fluoro-5-((6-((1-(2,2,2-trifluoroethyl)piperidin-4-yl)oxy)quinazolin-4-yl)oxy)pyridin-2-yl)acetamide], with 7.68. Next, `Cc1cc(CC(=O)Nc2cnn(C(C)(C)C)c2)c(F)cc1Oc1ccnc2ccc(OC3CCNCC3)cc12` [Compound 114, N-(1-(tert-butyl)-1H-pyrazol-4-yl)-2-(2-fluoro-5-methyl-4-((6-(piperidin-4-yloxy)quinolin-4-yl)oxy)phenyl) acetamide]: more than 8.60; `Cc1cc(CC(=O)Nc2cnn(C(C)(C)C)c2)c(F)cc1Oc1ccnc2ccc(OC3CCN(C)CC3)cc12` [Compound 115, N-(1-(tert-butyl)-1H-pyrazol-4-yl)-2-(2-fluoro-5-methyl-4-((6-((1-methyl-piperidin-4-yl)oxy)quinolin-4-yl)oxy)phenyl) acetamide]: more than 8.60; `Cc1cc(CC(=O)Nc2cnn(C(C)(C)C)c2)c(F)cc1Oc1ncnc2ccc(OC3CCNCC3)cc12` [Compound 116]: more than 8.60. For `Cc1cc(CC(=O)Nc2cnn(C(C)(C)C)c2)c(F)cc1Oc1ncnc2ccc(OC3CCN(C)CC3)cc12` [Compound 117, N-(1-(tert-butyl)-1H-pyrazol-4-yl)-2-(2-fluoro-5-methyl-4-((6-((1-methyl-piperidin-4-yl)oxy)quinazolin-4-yl)oxy)phenyl) acetamide], the pIC50 was more than 8.60. Then `Cc1cc(CC(=O)Nc2cnn(C(C)(C)C)c2)ccc1Oc1ccnc2ccc(S(=O)(=O)N3CCN(C)CC3)cc12` [Compound 118, N-(1-(tert-butyl)-1H-pyrazol-4-yl)-2-(3-methyl-4-((6-((4-methylpiperazin-1-yl)sulfonyl)quinolin-4-yl)oxy)phenyl)acetamide], with more than 8.60. Regarding `Cc1cc(CC(=O)Nc2cnn(C(C)(C)C)c2)ccc1Oc1ccnc2ccc(S(=O)(=O)N3CCNCC3)cc12` [Compound 119, N-(1-(tert-butyl)-1H-pyrazol-4-yl)-2-(3-methyl-4-((6-(piperazin-1-ylsulfonyl)quinolin-4-yl)oxy)phenyl)acetamide], the pIC50 was more than 8.60. Next, `Cc1cc(CC(=O)Nc2cnn(C(C)(C)C)c2)ccc1Oc1ccnc2ccc(OC3CCN(CC(F)F)CC3)cc12` [Compound 120, N-(1-(tert-butyl)-1H-pyrazol-4-yl)-2-(4-((6-((1-(2,2-difluoroethyl)piperidin-4-yl)oxy)quinolin-4-yl)oxy)-3-methylphenyl) acetamide]: more than 8.60; `Cc1cc(CC(=O)Nc2cnn(C(C)(C)C)c2)ccc1Oc1ccnc2ccc(O[C@H]3CC[C@@H](N)CC3)cc12` [Compound 121, 2-(4-((6-(((1s,4s)-4-aminocyclo-hexyl)oxy)quinolin-4-yl)oxy)-3-methyl-phenyl)-N-(1-(tert-butyl)-1H-pyrazol-4-yl)acetamide]: more than 8.60. Next, `Cc1cc(CC(=O)Nc2cnn(C(C)(C)C)c2)ccc1Oc1ccnc2ccc(O[C@H]3CC[C@H](N)CC3)cc12` [Compound 122, 2-(4-((6-(((1r,4r)-4-aminocyclohexyl)oxy)quinolin-4-yl)oxy)-3-methylphenyl)-N-(1-(tert-butyl)-1H-pyrazol-4-yl)acetamide]: more than 8.60; `Cc1cc(CC(=O)Nc2cnn(C(C)(C)C)c2)ccc1Oc1ccnc2ccc(O[C@H]3C[C@@H](N)C3)cc12` [Compound 123, 2-(4-((6-((1s,3s)-3-aminocyclo-butoxy)quinolin-4-yl)oxy)-3-methyl-phenyl)-N-(1-(tert-butyl)-1H-pyrazol-4-yl)acetamide]: more than 8.60.

Regarding `Cc1cc(CC(=O)Nc2cnn(C(C)(C)C)c2)ccc1Oc1ccnc2ccc(O[C@H]3C[C@H](N)C3)cc12` [Compound 124, 2-(4-((6-((1r,3r)-3-aminocyclo-butoxy)quinolin-4-yl)oxy)-3-methyl-phenyl)-N-(1-(tert-butyl)-1H-pyrazol-4-yl)acetamide], the pIC50 was more than 8.60. Next, `CN1CCC(S(=O)(=O)c2ccc3nccc(Oc4ccc(CC(=O)Nc5cnn(C(C)(C)C)c5)c(F)c4)c3c2)CC1` [Compound 125, N-(1-(tert-butyl)-1H-pyrazol-4-yl)-2-(2-fluoro-4-((6-((1-methylpiperidin-4-yl)sulfonyl)quinolin-4-yl)oxy)phenyl)acetamide]: more than 8.60; `CN1CCN(S(=O)(=O)c2ccc3nccc(Oc4ccc(CC(=O)Nc5cnn(C(C)(C)C)c5)c(F)c4)c3c2)CC1` [Compound 126, N-(1-(tert-butyl)-1H-pyrazol-4-yl)-2-(2-fluoro-4-((6-((4-methylpiperazin-1-yl)sulfonyl)quinolin-4-yl)oxy)phenyl)acetamide]: more than 8.60. For the compound `CC(C)(C)n1cc(NC(=O)Cc2ccc(Oc3ccnc4ccc(S(=O)(=O)C5CCNCC5)cc34)cc2F)cn1` [Compound 127, N-(1-(tert-butyl)-1H-pyrazol-4-yl)-2-(2-fluoro-4-((6-(piperidin-4-ylsulfonyl)quinolin-4-yl)oxy)phenyl)acetamide], the pIC50 was more than 8.60.

For `CC(C)(C)n1cc(NC(=O)Cc2ccc(Oc3ccnc4ccc(S(=O)(=O)N5CCNCC5)cc34)cc2F)cn1` [Compound 128, N-(1-(tert-butyl)-1H-pyrazol-4-yl)-2-(2-fluoro-4-((6-(piperazin-1-ylsulfonyl)quinolin-4-yl)oxy)phenyl)acetamide], the pIC50 was more than 8.60. Next, `[2H]C([2H])([2H])N1CCC(Oc2ccc3nccc(Oc4cnc(CC(=O)Nc5cnn(C(C)(C)C)c5)c(F)c4)c3c2)CC1` [Compound 129, N-(1-(tert-butyl)-1H-pyrazol-4-yl)-2-(3-fluoro-5-((6-((1-(methyl-d3)piperidin-4-yl)oxy)quinolin-4-yl)oxy)pyridin-2-yl) acetamide]: 8.36; `CCS(=O)(=O)c1ccc2nccc(Oc3ccc(CC(=O)Nc4cnn(C(C)(C)C)c4)c(F)c3)c2c1` [Compound 130, N-(1-(tert-butyl)-1H-pyrazol-4-yl)-2-(4-((6-(ethylsulfonyl)quinolin-4-yl)oxy)-2-fluorophenyl)acetamide]: more than 8.60; `CC(C)(C)n1cc(NC(=O)Cc2ccc(Oc3ccnc4ccc(S(=O)(=O)C5CC5)cc34)cc2F)cn1` [Compound 131, N-(1-(tert-butyl)-1H-pyrazol-4-yl)-2-(4-((6-(cyclopropylsulfonyl)quinolin-4-yl)oxy)-2-fluorophenyl)acetamide]: more than 8.60. As to `CC(C)(C)n1cc(NC(=O)Cc2ccc(Oc3ccnc4ccc(S(=O)(=O)C5COC5)cc34)cc2F)cn1` [Compound 132, N-(1-(tert-butyl)-1H-pyrazol-4-yl)-2-(2-fluoro-4-((6-(oxetan-3-ylsulfonyl)quinolin-4-yl)oxy)phenyl)acetamide], the pIC50 was more than 8.60.

Consider `CC(C)(C)n1cc(NC(=O)Cc2ccc(Oc3ncnc4ccc(OC5CCOCC5)cc34)cc2F)cn1` [Compound 133, N-(1-(tert-butyl)-1H-pyrazol-4-yl)-2-(2-fluoro-4-((6-((tetrahydro-2H-pyran-4-yl)oxy)quinazolin-4-yl)oxy)phenyl) acetamide], for which the negative-log IC50 (pIC50) is 7.96. Next, `CN1CCC(Oc2ccc3nccc(Oc4cnc(CC(=O)Nc5cc(C(C)(C)C)[nH]n5)c(F)c4)c3c2)CC1` [Compound 134, N-(5-(tert-butyl)-1H-pyrazol-3-yl)-2-(3-fluoro-5-((6-((1-methylpiperidin-4-yl)oxy)quinolin-4-yl)oxy)pyridin-2-yl)acetamide]: more than 8.60; `CC(C)(C)c1cc(NC(=O)Cc2ncc(Oc3ccnc4ccc(OC5CCNCC5)cc34)cc2F)n[nH]1` [Compound 135, N-(5-(tert-butyl)-1H-pyrazol-3-yl)-2-(3-fluoro-5-((6-(piperidin-4-yloxy)quinolin-4-yl)oxy)pyridin-2-yl)acetamide]: more than 8.60. Then `CN1CCC(Oc2ccc3nccc(Oc4ccc(CC(=O)Nc5cc(C(C)(C)C)[nH]n5)c(F)c4)c3c2)CC1` [Compound 136, N-(5-(tert-butyl)-1H-pyrazol-3-yl)-2-(2-fluoro-4-((6-((1-methyl-piperidin-4-yl)oxy)quinolin-4-yl)oxy)phenyl) acetamide], with more than 8.60; and `CC(C)(C)c1cc(NC(=O)Cc2ccc(Oc3ccnc4ccc(OC5CCNCC5)cc34)cc2F)n[nH]1` [Compound 137, N-(5-(tert-butyl)-1H-pyrazol-3-yl)-2-(2-fluoro-4-((6-(piperidin-4-yloxy)quinolin-4-yl)oxy)phenyl) acetamide], with more than 8.60; and `COC(C)(C)c1ccc2nccc(Oc3cnc(CC(=O)Nc4cnn(C(C)(C)C)c4)c(F)c3)c2c1` [Compound 138, N-(1-(tert-butyl)-1H-pyrazol-4-yl)-2-(3-fluoro-5-((6-(2-methoxypropan-2-yl)quinolin-4-yl)oxy)pyridin-2-yl)acetamide], with 8.28.

The values are drawn from patent US12624018B1, “Inhibitors of RIPK2 and medical uses thereof” (Odyssey Therapeutics, Inc., priority 2022, dated 2026).
